Organism: Rattus norvegicus
Assay: Inhibition of rat recombinant geranylgeranyltransferase type I expressed in Escherichia coli assessed as residual enzyme activity for geranylgeranylation of K-Ras4B at 50 uM incubated for 30 mins in presence of [3H]GGPP by scintillation counting assay relative to control

| Activity | SMILES |
| --- | --- |
| 67.1% | Cc1ccc(S(=O)(=O)N2[C@@H](c3cccc(Br)c3)C(C(=O)O)=CC[C@H]2c2cccc(F)c2)cc1 |
| 56.7% | Cc1ccc([C@@H]2CC=C(C(=O)O)[C@H](c3cccc(Cl)c3)N2S(=O)(=O)c2ccccc2)cc1 |
| 82.9% | COc1cccc([C@@H]2CC=C(C(=O)O)[C@H](c3cccc(F)c3)N2S(=O)(=O)c2ccc(C)cc2)c1 |
| 72.2% | Cc1ccc(S(=O)(=O)N2[C@@H](c3cccc(Br)c3)C(C(=O)O)=CC[C@H]2c2ccc(F)cc2)cc1 |
| 63.4% | Cc1ccc([C@@H]2CC=C(C(=O)O)[C@H](c3cccc(F)c3)N2S(=O)(=O)c2ccccc2C)cc1 |
| 93.5% | Cc1ccc(S(=O)(=O)N2[C@@H](c3cccc(Br)c3)C(C(=O)O)=CC[C@H]2c2ccc(C#N)cc2)cc1 |
| 57.5% | Cc1ccc(S(=O)(=O)N2[C@@H](c3ccc(Br)cc3)C(C(=O)O)=CC[C@H]2c2ccc(Cl)cc2)cc1 |
| 58.2% | Cc1ccc(S(=O)(=O)N2[C@@H](c3ccc(Cl)cc3)C(C(=O)O)=CC[C@H]2c2ccccc2F)cc1 |
| 89.5% | Cc1cccc([C@H]2C(C(=O)O)=CC[C@@H](c3ccc(Cl)cc3)N2S(=O)(=O)c2ccc(Cl)cc2)c1 |
| 87.8% | COc1ccc([C@@H]2CC=C(C(=O)O)[C@H](c3cccc(Cl)c3)N2S(=O)(=O)c2ccc(C)cc2)cc1OC |
| 71.3% | Cc1ccc(S(=O)(=O)N2[C@@H](c3cccc(Cl)c3)C(C(=O)O)=CC[C@H]2c2ccccc2)cc1 |
| 60.8% | Cc1ccc(S(=O)(=O)N2[C@@H](c3ccc(Br)cc3)C(C(=O)O)=CC[C@H]2c2cccc(F)c2)cc1 |
| 60.7% | COc1ccc([C@@H]2CC=C(C(=O)O)[C@H](c3cccc(Br)c3)N2S(=O)(=O)c2ccc(Cl)cc2)cc1 |
| 70.6% | Cc1ccc(S(=O)(=O)N2[C@@H](c3cccc(C)c3)C(C(=O)O)=CC[C@H]2c2ccc3c(c2)OCO3)cc1 |
| 44.8% | O=C(O)C1=CC[C@@H](c2ccc(Cl)cc2)N(S(=O)(=O)c2ccc(Cl)cc2)[C@H]1c1cccc(F)c1 |
| 78.4% | Cc1ccc([C@@H]2CC=C(C(=O)O)[C@H](c3ccc(Br)cc3)N2S(=O)(=O)c2ccccc2)cc1 |
| 68.1% | Cc1ccc(S(=O)(=O)N2[C@@H](c3ccc(Cl)cc3)C(C(=O)O)=CC[C@H]2c2cccc(Br)c2)cc1 |
| 65% | COc1cccc([C@@H]2CC=C(C(=O)O)[C@H](c3ccc(F)cc3)N2S(=O)(=O)c2ccc(C)cc2)c1 |

The remaining lines, values behind:

| SMILES | Activity |
| --- | --- |
| CCS[C@@H]1C[C@@H](c2cccc(OC)c2)N(S(=O)(=O)c2ccc(C)cc2)C[C@H]1C(=O)O | 84.8% |
| Cc1ccc([C@@H]2C[C@@H](SCC(C)C)[C@H](C(=O)O)CN2S(=O)(=O)c2ccccc2)cc1 | 51% |
| CCCCS[C@@H]1C[C@@H](c2ccccc2)N(S(=O)(=O)c2ccc(C)cc2)C[C@H]1C(=O)O | 93.4% |
| Cc1ccc([C@@H]2C[C@@H](SCCc3ccccc3)[C@H](C(=O)O)CN2S(C)(=O)=O)cc1 | 76.9% |
| CC(C)(C)c1ccc([C@H]2C(C(=O)O)=CC[C@@H](c3ccccc3)N2S(C)(=O)=O)cc1 | 73.3% |
| COc1ccc(S[C@@H]2C[C@@H](c3ccc(OC)cc3)N(S(=O)(=O)c3ccccc3C)C[C@H]2C(=O)O)cc1 | 82.2% |
| COc1ccc([C@@H]2CC=C(C(=O)O)[C@H](c3ccc(C(C)(C)C)cc3)N2S(=O)(=O)c2ccc(C)cc2)cc1 | 91.1% |
| COc1ccc(S[C@@H]2C[C@@H](c3ccc(C)cc3)N(S(C)(=O)=O)C[C@H]2C(=O)O)cc1 | 99% |
| CCCS[C@@H]1C[C@@H](c2ccc(Cl)cc2)N(S(=O)(=O)c2ccccc2C)C[C@H]1C(=O)O | 53.3% |
| Cc1ccc([C@H]2C(C(=O)O)=CC[C@@H](c3ccc(Cl)cc3)N2S(=O)(=O)c2ccccc2C)cc1 | 61.6% |
| Cc1ccc(S(=O)(=O)N2C[C@@H](C(=O)O)[C@H](SCc3ccc(C(C)(C)C)cc3)C[C@H]2c2cccc(Cl)c2)cc1 | 99% |
| CS(=O)(=O)N1[C@@H](c2ccc(Cl)cc2)C(C(=O)O)=CC[C@H]1c1ccc(Cl)cc1 | 55% |
| CCCCCCS[C@@H]1C[C@@H](c2ccc(C)cc2)N(S(=O)(=O)c2ccc(Cl)cc2)C[C@H]1C(=O)O | 71.6% |
| Cc1ccc([C@@H]2CC=C(C(=O)O)[C@H](c3ccc(C(C)(C)C)cc3)N2S(=O)(=O)c2ccccc2)cc1 | 81.6% |
| COc1cccc([C@@H]2C[C@@H](Sc3ccc(C)cc3)[C@H](C(=O)O)CN2S(=O)(=O)c2ccc(C)cc2)c1 | 77% |
| CC(=O)C1=CC[C@@H](c2cccc3ccccc23)N(S(=O)(=O)c2ccc(C)cc2)C1 | 95.6% |
| Cc1ccc(S(=O)(=O)N2[C@@H](c3ccc(C(C)(C)C)cc3)C(C(=O)O)=CC[C@H]2c2ccc(F)cc2)cc1 | 85.1% |
| Cc1ccc([C@@H]2C[C@@H](SC3CCCC3)[C@H](C(=O)O)CN2S(C)(=O)=O)cc1 | 110% |
| CCCCCS[C@@H]1C[C@@H](c2ccc(C)cc2)N(S(=O)(=O)c2ccccc2)C[C@H]1C(=O)O | 81% |

| SMILES | Activity |
| --- | --- |
| Cc1ccc([C@@H]2C[C@@H](SCc3ccccc3)[C@H](C(=O)O)CN2S(=O)(=O)c2ccc(Cl)cc2)cc1 | 40.3% |
| COc1ccc(S[C@@H]2C[C@@H](c3ccc(Cl)cc3)N(S(=O)(=O)c3ccccc3C)C[C@H]2C(=O)O)cc1 | 85.6% |
| Cc1ccccc1S(=O)(=O)N1[C@@H](c2ccc(Cl)cc2)C(C(=O)O)=CC[C@H]1c1ccc(Cl)cc1 | 54.4% |
| COc1ccc([C@@H]2C[C@@H](SCC(C)C)[C@H](C(=O)O)CN2S(=O)(=O)c2ccccc2)cc1 | 70.2% |
| COc1ccc([C@@H]2CC=C(C(=O)O)[C@H](c3ccc(Br)cc3)N2S(=O)(=O)c2ccccc2C)cc1 | 63.7% |
| COc1ccc([C@@H]2CC=C(C(=O)O)[C@H](c3ccc(C(C)(C)C)cc3)N2S(=O)(=O)c2ccccc2C)cc1 | 70.7% |
| CCCCS[C@@H]1C[C@@H](c2ccc(C)cc2)N(S(=O)(=O)c2ccc(C)cc2)C[C@H]1C(=O)O | 82.6% |
| CCCS[C@@H]1C[C@@H](c2ccc(C)cc2)N(S(=O)(=O)c2ccc(Cl)cc2)C[C@H]1C(=O)O | 83.2% |
| CCc1ccc([C@@H]2CC=C(C(=O)O)[C@H](c3ccc(C(C)(C)C)cc3)N2S(=O)(=O)c2ccc(C)cc2)cc1 | 79.7% |
| Cc1ccc([C@@H]2C[C@@H](SCc3ccccc3)[C@H](C(=O)O)CN2S(=O)(=O)c2ccc(C)cc2)cc1 | 93.1% |
| CCCCS[C@@H]1C[C@@H](c2ccc(OC)c(OC)c2)N(S(=O)(=O)c2ccc(C)cc2)C[C@H]1C(=O)O | 114% |
| COC(=O)c1ccccc1S(=O)(=O)N1[C@@H](c2ccc(Cl)cc2)C(C(=O)O)=CC[C@H]1c1ccc(C)cc1 | 81.4% |
| Cc1ccc(S(=O)(=O)N2C[C@@H](C(=O)O)[C@H](SC3CCCC3)C[C@H]2c2ccc(Cl)cc2)cc1 | 94.7% |
| Cc1ccc(S(=O)(=O)N2C[C@@H](C(=O)O)[C@H](Sc3ccccc3)C[C@H]2c2ccccc2)cc1 | 49.3% |
| CCOc1ccc([C@@H]2CC=C(C(=O)O)[C@H](c3ccc(Br)cc3)N2S(=O)(=O)c2ccc(C)cc2)cc1 | 79.4% |
| CCOc1ccc([C@@H]2C[C@@H](SC3CCCC3)[C@H](C(=O)O)CN2S(=O)(=O)c2ccc(C)cc2)cc1 | 84.6% |
| CCCS[C@@H]1C[C@@H](c2cccc(OC)c2)N(S(=O)(=O)c2ccc(C)cc2)C[C@H]1C(=O)O | 73.9% |
| COc1ccc([C@@H]2C[C@@H](SCc3ccccc3)[C@H](C(=O)O)CN2S(=O)(=O)c2ccc(C)cc2)cc1OC | 54.5% |
| CCCCCCS[C@@H]1C[C@@H](c2ccc(OC)cc2)N(S(=O)(=O)c2ccccc2C)C[C@H]1C(=O)O | 72.9% |
